Assay results taken from patent US7202239B2, “Cyclohexylphenyl carboxamides tocolytic oxytocin receptor antagonists” (Wyeth, priority 2001, dated 2007).

Target: human vasopressin V1a receptor subtype (Homo sapiens, UniProt P37288)
Test: Vasopressin binding in CHO cell membranes expressing human vasopressin V1a subtype receptors
Settings: [3H]Manning ligand; for inhibition at 0.1 µM / V1a % inhibition at 100 nM: 100 nM; for IC50: value in parentheses
Text: Vasopressin Binding in Chinese Hamster Ovary Cell Membranes Expressing Human Vasopressin V1a Subtype Receptors
Chinese hamster ovary cells (CHO cells) stably transfected with the human vasopressin V1a subtype receptors were either obtained from Biosignal Inc., 1744 rue Williams, Montreal, Quebec, Canada or obtained from M. Thibonnier, Case Western Reserve University School of Medicine, Cleveland, Ohio. A. Passaging and Amplification of Cells: CHO cells transfected with the human vasopressin V1a subtype receptors obtained from M. Thibonnier (pZeoSV vector) are allowed to grow to confluency (approx. >90%) in T-150 flasks under sterile conditions, in a cell culture medium of F-12 Nutrient Mixture (HAM) with L-glutamine (Gibco Cat. # 11765-054) containing 15 mM HEPES (Gibco Cat. 15630-080), 1% antibiotic/antimycotic (add 5 mL 100×, Gibco Cat. 15240-062 per 500 mL F-12), 250 μg/mL Zeocin (add 1.25 mL of 100 mg/mL Invitrogen R-250-01 per 500 mL F-12) and 10% Fetal Bovine Serum (Qualified, heat inactivated, Gibco Cat. # 16140-063). The medium is removed by aspiration and the cells are washed with 10 mL of Hank's Balanced Salt solution (Gibco Cat. # 14175-095). The salt solution is removed by aspiration and the cells are trypsinized with 5 mL of trypsin-EDTA (0.05% trypsin, 0.53 mM EDTA-4Na, Gibco Cat. # 25300-070) for 1 min. The trypsin is removed by aspiration and the cells dislodged by tapping. Cell Culture medium (eg, 30 mL for 1:30 split) is immediately added and mixed well to inactivate trypsin. 1 mL of detached cells is added to new culture flasks containing fresh cell culture medium (eg, into 25 mL per T-150 flask), and mixed gently. The cells are incubated at 37° C. in 5% CO2. The medium is changed at 3 to 4 days interval (or as appropriate). The cells grow to confluency (approx. >75%–95%) within 7–8 days. All steps are done under sterile conditions. B. Membrane Preparation: The cells are washed twice gently with Hank's Balanced Salt solution (e.g,. use 10 mL per T-150 flask). The excess is removed and the cells are bathed for 15–30 min. in an enzyme-free Cell Dissociation Buffer (e.g. use 8 mL Hank's Based, Gibco Cat. # 13150-016 per T-150 flask) until the cells are loosened. The contents are transferred to centrifuge tubes (50 mL) kept in an ice bath. All subsequent steps are done at 4° C. The tubes are centrifuged at 300×g for 15 min (1380 rpm on SORVAL, Model RT6000D, using rotor for the 50 mL tubes). The supernatant is discarded and the cells suspended in homogeneizing buffer(10 mM Tris-HCl containing 0.25 M sucrose and 1 mM EDTA, pH 7.4) ensuring that the volume of the buffer is about ten times the volume of the cell pellet. The cells are pooled into a centrifuge tube (50 mL) and homogenized with Polytron at setting 6 for 10 sec. The homogenate is transferred into a Potter-Elvjehm homogenizer and homogenized with 3 strokes. The homogenate is centrifuged at 1500× g for 10 min at 4° C. (3100 rpm using SORVAL, model RT6000D, using the rotor for 50 mL tubes). The pellet is discarded. The supernatant is centrifuged at 100,000×g for 60 min. at 4° C. (Beckman L8-80M ultracentrifuge; spin at 37,500 rpm with rotor type 70 Ti for 50 mL tubes; 38,000 rpm with type 80Ti for 15 mL tubes; or 35,800 rpm with rotor type 45Ti). The supernantant is discarded and the pellet suspended in 3 to 4 mL of Tris buffer (50 mM TRIS-HCl, pH 7.4). The protein content is estimated by the Bradford or Lowry method. The volume of the membrane suspension is adjusted with the membrane buffer (50 mM Tris-HCl containing 0.1% BSA and 0.1 mM PMSF) to give 3.0 mg/mL (or as appropriate) of protein. The membranes are aliquoted and stored at −70° C. C. […]

human vasopressin V1a receptor subtype, sequence (P37288 whole entry): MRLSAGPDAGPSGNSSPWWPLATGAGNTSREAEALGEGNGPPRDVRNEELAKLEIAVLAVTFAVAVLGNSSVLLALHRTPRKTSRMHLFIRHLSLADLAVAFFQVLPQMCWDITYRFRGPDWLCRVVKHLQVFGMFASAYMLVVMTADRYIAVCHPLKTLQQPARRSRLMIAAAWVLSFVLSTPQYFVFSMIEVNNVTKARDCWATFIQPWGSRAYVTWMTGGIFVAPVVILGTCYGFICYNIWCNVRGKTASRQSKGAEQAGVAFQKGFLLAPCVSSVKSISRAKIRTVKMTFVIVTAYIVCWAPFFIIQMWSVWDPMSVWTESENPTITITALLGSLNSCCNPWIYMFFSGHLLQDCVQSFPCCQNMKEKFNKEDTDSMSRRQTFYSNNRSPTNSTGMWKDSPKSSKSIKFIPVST

SMILES | inhibition at 0.1 µM | V1a % inhibition at 100 nM | IC50
CN(CCc1ccccn1)C(=O)c1ccc2n1Cc1ccccc1N(C(=O)c1ccc(C3CCCCC3)cc1)C2 [Example 52, 10-(4-Cyclohexyl-benzoyl)-N-methyl-N-[2-(2-pyridinyl)-ethyl]-10,11-dihydro-5H-pyrrolo[2,1-c][1,4]benzodiazepine-3-carboxamide] | 19% |  | 
O=C(c1ccc(C2CCCCC2)cc1)N1Cc2ccc(C(=O)N3CCC[C@H]3CN3CCCC3)n2Cc2ccccc21 [Example 46, [10-(4-Cyclohexyl-benzoyl)-10,11-dihydro-5H-pyrrolo[2,1-c][1.4]benzodiazepin-3-yl][(2S)-2-(1-pyrrolidinylmethyl)pyrrolidinyl]methanone] |  | 21% | 
CN(C)NC(=O)c1ccc2n1Cc1ccccc1N(C(=O)c1ccc(C3CCCCC3)cc1)C2 [Example 19, 10-(4-Cyclohexyl-benzoyl)-N′-N′-dimethyl-10,11-dihydro-5H-pyrrolo[2,1-c][1,4]benzodiazepine-3-carbohydrazide] |  |  | 880 nM
O=C(c1ccc2n1Cc1ccccc1N(C(=O)c1ccc(C3CCCCC3)cc1)C2)N1CCC(N2CCCCC2)CC1 [Example 26, [1,4′]Bipiperidinyl-1′-yl-[10-(4-cyclohexyl-benzoyl)-10,11-dihydro-5H-pyrrolo[2,1-c][1,4]benzodiazepin-3-yl]-methanone] |  |  | 200 nM
CN1CCN(C(=O)C(=O)c2ccc3n2Cc2ccccc2N(C(=O)c2ccc(C4CCCCC4)cc2)C3)CC1 [Example 32, 1-[10-(4-Cyclohexyl-benzoyl)-10,11-dihydro-5H-pyrrolo[2,1-c][1,4]benzodiazepin-3-yl]-2-(4-methyl-1-piperazin-1-yl)-1,2-ethane-1,2-dione] |  | 56% | 
Cc1ccccc1C(=O)NNC(=O)c1ccc2n1Cc1ccccc1N(C(=O)c1ccc(C3CCCCC3)cc1)C2 [Example 12, 10-(4-Cyclohexyl-benzoyl)-N′-(2-methylbenzoyl)-10,11-dihydro-5H-pyrrolo[2,1-c][1,4]benzodiazepine-3-carbonyl-hydrazide] |  | 31% | 
CN1CCC(N(C)C(=O)c2ccc3n2Cc2ccccc2N(C(=O)c2ccc(C4CCCCC4)cc2)C3)CC1 [Example 39, 10-(4-Cyclohexyl-benzoyl)-N-methyl-N-(1-methyl-4-piperidinyl)-10,11-dihydro-5H-pyrrolo[2,1-c][1,4]benzodiazepine-3-carboxamide] | 43% |  | 
CC(=NNC(=O)c1ccc2n1Cc1ccccc1N(C(=O)c1ccc(C3CCCCC3)cc1)C2)N(C)C [Example 9, N′-{[10-(4-Cyclohexyl-benzoyl)-10,11-dihydro-5H-pyrrolo[2,1-c][1,4]benzodiazepin-3-yl]carbonyl}-N,N-dimethylethanehydrazonamide] |  |  | 146 nM
CN1CCCC1CCNC(=O)c1ccc2n1Cc1ccccc1N(C(=O)c1ccc(C3CCCCC3)cc1)C2 (stereo not drawn) [Example 38, 10-(4-Cyclohexyl-benzoyl)-N-[2-(1-methyl-2-pyrrolidinyl)ethyl]-10,11-dihydro-5H-pyrrolo[2,1-c][1,4]benzodiazepine-3-carboxamide] | 31% |  | 
